In patent publication US6235739A, “5-phenyl-3-pyridazinone derivatives and drug composition containing the same” (Nikken Chemicals Co., Ltd., priority 1996, dated 2001) one finds IC50 and ED50 data, which are given here for 28 compounds.

The test system of one experiment is Type IV PDE. Description: Measurement of type IV PDE inhibiting activity. The class given is biochemical. The following applies: type IV PDE partially purified from neutrophils; 3H-cAMP substrate; 30 minutes; read-out: Type IV PDE Inhibitory activity IC50. How it is done: Type I, III, IV, and V PDE isozymes were prepared to study the PDE inhibiting activities and selectivities of the compound of the invention [Trends Pharmacol Sci., 12, 19-27 (1992)]. Type I PDE was purchased from Sigma Corp. Type III and V PDE isozymes were partially purified from rats platelets, and type IV PDE isozyme was partially purified from neutrophils. Each enzyme source was homogenized in a buffer (pH 6.5) containing 20 mM bisTris, 2 mM EDTA, 0.1 mM PMSF (phenylmethylsulfonyl fluoride), 5 mM 2-mercaptoethanol, 0.01 mM pepstatin, and 0.01 mM leupeptin and was centrifuged at 30,000G for 30 minutes to obtain a supernatant, which was applied to a column (1.5×20 cm) packed with an ion-exchange resin (Q-sepharose First Flow, Pharmacia Corp.) and was eluted with sodium acetate gradient of 0 to 1M. Partially purified isozymes were identified by observing the effects of conventional inhibitor.
Each PDE isozyme and test compounds dissolved in DMSO (i.e., dimethyl sulfoxide) were added to 50 mM Tris-HCl buffer containing 5 mM magnesium chloride. ^3 H-cAMP (for type III and IV PDE) or ^3 H-cGMP (for type I and V PDE) were added as substrates and were reacted for 30 minutes. The reaction was terminated by placing the test tube in boiling water of 100° C. for 5 minutes. The nucleotides formed by PDE were broken down by 5'-nucleotidase to ^3 H-adenosine or 3H-guanosine. The unreacted substrate and reaction product were separated through a column packed with an ion-exchange resin (QAE sephadex). The eluted ^3 H-nucleoside was measured for its radioactivity by a liquid scintillation counter. The inhibiting activities of the compound of the present invention against types I, III and V are 1/10 or less than that against type IV.

Experiment [1] deals with antigen-induced bronchospasm. Description: Inhibitory effect on antigen-induced bronchospasm (anti-asthmatic action). The class given is in vivo. The following applies: Cavia porcellus, iv; ovalbumin-sensitized Hartley male guinea pig; intravenously 10 minutes before 0.2 mg/kg OA i.v.; Konzett-Roessler method; read-out: Action for suppressing antigen-induced bronchospasms ED50. How it is done: A Hartley male guinea pig was sensitized by intramuscular administration of […] Ovalbumin (OA) on first day and fourth day, and used after 24th day. A trachial canula was introduced in the guinea pig anesthetized with pentobarbital and artificial ventilation was performed 25 to 29 days after the first sensitization. The overflow of the ventilation was measured by the Konzett-Roessler method, while 0.2 mg/kg OA were administered intravenously. The test compound was dissolved in polyethylene glycol 400 and intravenously administered 10 minutes before administration of the antigens.

In a further experiment the test system is rat neutrophils. Briefly: Inhibitory effects on activity of rat neutrophils (release of super oxide anions). The following applies: Neutrophil, stimulation with 0.3 μM calcium ionophore A23187, chemiluminescence, read-out: Action for suppressing release of super oxide anions from rat neutrophils IC50. The class given is cell-based. On the procedure:
The release of super oxide anions was measured so as to study the inhibitory effects of the compound on inflammatory leukocytes, that is, neutrophils.
Blood sample was obtained from Wister rats anesthetized with ether. It was superposed on a blood cell separation solution (Polymorphoprep 1.113, made by Naicomet Co. (phonetic)) and the neutrophils were separated by centrifugation. The neutrophils were resuspended in a Hank's balanced salt solution at a concentration of 0.5×10^4 cell/ml. 0.1 mM of Lusigenin and the test substance dissolved in DMSO were added to 2 ml of the cell-suspension. The chemiluminescence generated by stimulation of 0.3 μM calcium ionophore A23187 was measured by a chemiluminescence reader so as to evaluate the release of super oxide anions.

As for `CCC(CC)COc1cc(C2C=NN(C)C(=O)C2)ccc1OC` (stereo not shown) [Compound No. 24, 5-[4-methoxy-3-(2-ethylbutoxy)phenyl]-2-methyl-2,3,4,5-tetrahydropyridazin-3-one], the IC50 – broadly, the point on the concentration scale where inhibition reaches its midpoint – in the experiment on Type IV PDE was found to be 0.34 µM. In the case of `COc1ccc(C2C=NN(Cc3ccccc3)C(=O)C2)cc1OC1CCCC1` (stereo not shown) [Compound No. 6, 2-benzyl-5-(3-cyclopentyloxy-4-methoxyphenyl)-2,3,4,5-tetrahydropyridazin-3-one], the ED50 – broadly, the dose that gives a 50% effect, or the effect in half of the subjects – in experiment [1] came to 3.2 mg/kg. Moreover, the IC50 was found to be 0.13 µM in the experiment on rat neutrophils and 0.18 µM with Type IV PDE. `COc1ccc(C2C=NN(C)C(=O)C2)cc1OCC(C)C` (stereo not shown) [Compound No. 20, 5-[4-methoxy-3-(2-methylpropoxy)phenyl]-2-methyl-2,3,4,5-tetrahydropyridazin-3-one]: the ED50 in experiment [1] came to 0.97 mg/kg. For the same compound, the IC50 with Type IV PDE came out at 2.3 µM. In the case of `COc1ccc(C2C=NNC(=O)C2)cc1OCC1CC1` (stereo not shown) [Compound No. 10, 5-(3-cyclopropylmethyloxy-4-methoxyphenyl)-2,3,4,5-tetrahydropyridazin-3-one], the ED50 in experiment [1] stood at 0.074 mg/kg. Besides, the IC50 in the experiment with Type IV PDE came to 1.6 µM. For `COc1ccc(C2C=NN(C)C(=O)C2)cc1OCCc1ccccc1` (stereo not shown) [Compound No. 19, 5-(4-methoxy-3-phenethyloxyphenyl) -2-methyl-2,3,4,5-tetrahydropyridazin-3-one], the IC50 in the experiment with Type IV PDE was 2.7 µM. On the same count and under the same terms, next, `COc1ccc(C2C=NNC(=O)C2)cc1OCC1(c2ccccc2)CC1` (stereo not shown) [Compound No. 25, 5-[4-methoxy-3-[(1-phenylcyclopropyl)methyloxy]phenyl]-2,3,4,5-tetrahydropyridazin-3-one]: 0.75 µM; `COc1ccc(C2C=NN(C)C(=O)C2)cc1OCC(C)(C)C` (stereo not shown) [Compound No. 21, 5-[3-(2,2-dimethylpropoxy)-4-methoxyphenyl]-2-methyl-2,3,4,5-tetrahydropyridazin-3-one]: 3.9 µM.

On to `COc1ccc(C2CNNC(=O)C2)cc1OC1CCCC1` (stereo not shown) [Compound No. 4, 5-(3-cyclopentyloxy-4-methoxyphenyl)hexahydropyridazin-3-one], for which, in experiment [1], the ED50 was determined as 2.1 mg/kg. The IC50 in the experiment with Type IV PDE stood at 2.5 µM.

For `COc1ccc(C2C=NN(C)C(=O)C2)cc1OC1CCCC1` (stereo not shown) [Compound No. 5, 5-(3-cyclopentyloxy-4-methoxyphenyl)-2-methyl-2,3,4,5-tetrahydropyridazin-3-one], the IC50 with rat neutrophils stood at 0.43 µM; in the experiment with Type IV PDE, 0.67 µM. Regarding `COc1ccc(C2C=NN(c3ccccc3)C(=O)C2)cc1OC` (stereo not shown) [Compound No. 2, 5-(3,4-dimethoxyphenyl)-2-phenyl-2,3,4,5-tetrahydropyridazin-3-one], the results for the IC50 with rat neutrophils and with Type IV PDE were 1.7 µM and 4.2 µM, respectively.

Regarding `COc1ccc(C2C=NNC(=O)C2)cc1OCCc1ccccc1` (stereo not shown) [Compound No. 8, 5-(4-methoxy-3-phenethyloxyphenyl)-2,3,4,5-tetrahydropyridazin-3-one], in experiment [1], the ED50 stood at 4.2 mg/kg. Also, the IC50 in the experiment on Type IV PDE stood at 1.6 µM. On to `COc1ccc(C2C=NNC(=O)C2)cc1OCCCCCc1ccccc1` (stereo not shown) [Compound No. 16, 5-[4-methoxy-3-(5-phenylpentyloxy)phenyl]-2,3,4,5-tetrahydropyridazin-3-one], for which the IC50 in the experiment on Type IV PDE came to 0.33 µM.

`COc1ccc(C2C=NNC(=O)C2)cc1OC` (stereo not shown) [Compound No. 1, 5-(3,4-dimethoxyphenyl)-2,3,4,5-tetrahydropyridazin-3-one]: the values for the IC50 with rat neutrophils and in the experiment on Type IV PDE were 14 µM and 9.3 µM, respectively. For the compound `COc1ccc(C2C=NN(C)C(=O)C2)cc1OCC1CC1` (stereo not shown) [Compound No. 18, 5-(3-cyclopropylmethyloxy-4-methoxyphenyl) -2-methyl-2,3,4,5-tetrahydropyridazin-3-one], in experiment [1], the ED50 turned out to be 0.12 mg/kg. Also, the IC50 in the experiment on Type IV PDE came out at 4.6 µM. In the case of `COc1ccc(C2C=NNC(=O)C2)cc1OC1CCCC1` (stereo not shown) [Compound No. 3, 5-(3-cyclopentyloxy-4-methoxyphenyl)-2,3,4,5-tetrahydropyridazin-3-one], in experiment [1], the ED50 came to 0.4 mg/kg. The results for the IC50 in the experiment on rat neutrophils and with Type IV PDE were 0.03 µM and 0.42 µM, respectively. `COc1ccc(C2CC(=O)NN=C2c2ccccc2)cc1OC1CCCC1` (stereo not shown) [Compound No. 28, 5-(3-cyclopentyloxy-4-methoxyphenyl)-6-phenyl-2,3,4,5-tetrahydropyridazin-3-one]: the IC50 with Type IV PDE came to 19 µM. `CCCCOc1cc(C2C=NN(C)C(=O)C2)ccc1OC` (stereo not shown) [Compound No. 23, 5-(3-butoxy-4-methoxyphenyl)-2-methyl-2,3,4,5-tetrahydropyridazin-3-one]: the ED50 in experiment [1] came to 0.53 mg/kg. Besides, in the experiment on Type IV PDE, the IC50 was found to be 6.3 µM. On to `CCC(CC)COc1cc(C2C=NNC(=O)C2)ccc1OC` (stereo not shown) [Compound No. 14, 5-[3-(2-ethylbutoxy)-4-methoxyphenyl]-2,3,4,5-tetrahydropyridazin-3-one], for which the IC50 in the experiment with Type IV PDE was 2.3 µM. For `COc1ccc(C2C=NN(C)C(=O)C2)cc1OCC1(c2ccccc2)CC1` (stereo not shown) [Compound No. 26, 5-[4-methoxy-3-[(1-phenylcyclopropyl)methyloxy]phenyl]-2-methyl-2,3,4,5-tetrahydropyridazin-3-one], the IC50 with Type IV PDE was found to be 1.4 µM.

Take `COc1ccc(C2C=NN(C)C(=O)C2)cc1OCC1(C)CC1` (stereo not shown) [Compound No. 22, 5-[4-methoxy-3-[(1-methylcyclopropyl)methyloxy]phenyl]-2-methyl-2,3,4,5-tetrahydropyridazin-3-one]: the ED50 in experiment [1] was found to be 2.37 mg/kg. For the same compound, the IC50 with Type IV PDE stood at 2.7 µM.

Regarding `CCCCOc1cc(C2C=NNC(=O)C2)ccc1OC` (stereo not shown) [Compound No. 13, 5-(3-butoxy-4-methoxyphenyl)-2,3,4,5-tetrahydropyridazin-3-one], in experiment [1], the ED50 worked out at 1.4 mg/kg. The IC50 in the experiment with Type IV PDE came out at 3.4 µM. `COc1ccc(C2CC(=O)NN=C2C)cc1OC` (stereo not shown) [compound 27, 5-(3,4-dimethoxyphenyl)-6-methyl-2,3,4 5-tetrahydropyridazin-3-one]: the IC50 is 15 µM with rat neutrophils and 18 µM with Type IV PDE.

For `COc1ccc(C2C=NNC(=O)C2)cc1OCC(C)C` (stereo not shown) [Compound No. 12, 5-[4-methoxy-3-(2-methylpropoxy)phenyl]-2,3,4,5-tetrahydropyridazin-3-one], the 50% effective dose (ED50) in experiment [1] is 1.05 mg/kg. In addition, in the experiment with Type IV PDE, the IC50 worked out at 1.1 µM.

For `COc1ccc(C2C=NN(C)C(=O)C2)cc1OC1Cc2ccccc2C1` (stereo not shown) [Compound No. 17, 5-[3-(2-indanyloxy)-4-methoxyphenyl]-2-methyl-2,3,4,5-tetrahydropyridazin-3-one], the IC50 in the experiment with Type IV PDE was 0.63 µM.

For `COc1ccc(C2C=NNC(=O)C2)cc1OCC(C)(C)C` (stereo not shown) [Compound No. 15, 5-[3-(2,2-dimethylpropoxy)-4-methoxyphenyl]-2,3,4,5-tetrahydropyridazin-3-one], in the experiment with Type IV PDE, the IC50 turned out to be 4.8 µM. Same read-out and setting: next, `COc1ccc(C2C=NNC(=O)C2)cc1OC1Cc2ccccc2C1` (stereo not shown) [Compound No. 9, 5-[3-(2-indanyloxy)-4-methoxyphenyl]-2,3,4,5-tetrahydropyridazin-3-one]: 0.17 µM. Consider `COc1ccc(C2C=NNC(=O)C2)cc1OCC1(C)CC1` (stereo not shown) [Compound No. 11, 5-[4-methoxy-3-[(1-methylcyclopropyl)methyloxy]phenyl]2,3,4,5-tetrahydropyridazin-3-one], for which the ED50 in experiment [1] was found to be 0.82 mg/kg. The IC50 with Type IV PDE turned out to be 1.2 µM. Consider `COc1ccc(C2C=NNC(=O)C2)cc1OCc1ccccc1` (stereo not shown) [Compound No. 7, 5-(3-benzyloxy-4-methoxyphenyl)-2,3,4,5-tetrahydropyridazin-3-one], for which, in the experiment with Type IV PDE, the IC50 amounted to 8.7 µM.
